Results taken from US8216619B2, “Stable and bioavailable compositions of isomers of carotenoids for skin and hair” (Indena S.p.A., priority 2006, dated 2012).

Assay: Stability of pure lycopene isomers in n-hexane during storage at room temperature
Format: physicochemical
Conditions: for concentration (% of total isomers) 5-Z / concentration (% of total isomers) all E / concentration (% of total isomers) x-Z / concentration (% of total isomers) 9-Z / concentration (% of total isomers) 13-Z: n-hexane, room temperature, absence of light
Procedure: Pure 5-Z, 9-Z, 13-Z and all-E lycopene were isolated from isomerised tomato oleoresin (submitted to 1 hour heating), by collecting the fractions containing the corresponding peaks after HPLC separation (see below the experimental conditions). Peaks were collected during two consecutive HPLC runs and the corresponding fractions were pooled.
Lycopene isomer profiles were determined by normal phase HPLC according to the method described by Schierle et al. (Schierle, J., Bretzel, W., Bühler, I., Faccin, N., Hess, D., Steiner, K., Schuep, W. (1997). Food. Chem. 59: 459). Samples of isomerized oleoresins were dissolved in n-hexane containing 50 ppm BHT and spun at maximum speed in an Eppendorf Lab centrifuge. The resulting supernatants were immediately analyzed by HPLC. The HPLC system used was a 1100 series Hewlett-Packard model equipped with an ultraviolet-visible photodiode array detector. Data were simultaneously acquired at 470 nm, 464 nm, 346 nm and 294 nm. Samples (10 μL) were separated using a combination of three Nucleosil 300-5 columns (4 mm internal diameter×250 mm length, Macherey-Nagel). […] Flow rate was 0.8 mL/min. Lycopene Z-isomers were identified according to literature data.
Amounts of lycopene isomers were calculated based on surface areas of the HPLC peaks using the same extinction coefficient as the all-E lycopene. Therefore, the lycopene concentration in products containing Z-isomers is slightly underestimated since it is recognized that the extinction coefficients of Z-isomers are lower than that of the all-E isomer.
Stability of lycopene isomers was investigated both in n-hexane and in a tomato oleoresin isomerized by 4 hour heating in ethyl acetate. For this purpose, pure lycopene isomers were stored for 33 days in n-hexane at room temperature and in the absence of light, and the isomerized tomato oleoresin was kept for 55 days at room temperature in the absence of light. Total lycopene concentration and lycopene isomer profiles were measured at various time intervals during the storage.

concentration (% of total isomers) 5-Z (0 days)	concentration (% of total isomers) all E (0 days)	concentration (% of total isomers) x-Z (0 days)	concentration (% of total isomers) 5-Z (1 day)	concentration (% of total isomers) all E (1 day)	concentration (% of total isomers) x-Z (1 day)	concentration (% of total isomers) 5-Z (2 days)	concentration (% of total isomers) all E (2 days)	concentration (% of total isomers) x-Z (2 days)	concentration (% of total isomers) 5-Z (5 days)	concentration (% of total isomers) all E (5 days)	concentration (% of total isomers) x-Z (5 days)	concentration (% of total isomers) 5-Z (12 days)	concentration (% of total isomers) 9-Z (12 days)	concentration (% of total isomers) 13-Z (12 days)	concentration (% of total isomers) all E (12 days)	concentration (% of total isomers) x-Z (12 days)	concentration (% of total isomers) 5-Z (33 days)	concentration (% of total isomers) 9-Z (33 days)	concentration (% of total isomers) 13-Z (33 days)	SMILES	other results
95.5 % of total isomers	1.1 % of total isomers	3.4 % of total isomers	84.3 % of total isomers	2.2 % of total isomers	13.5 % of total isomers	76.9 % of total isomers	2.4 % of total isomers	20.6 % of total isomers	68.4 % of total isomers	3.9 % of total isomers	27.7 % of total isomers	65.3 % of total isomers	0.7 % of total isomers	1.7 % of total isomers	5.6 % of total isomers	26.7 % of total isomers	53.5 % of total isomers	2.3 % of total isomers	2.8 % of total isomers	CC(C)=CCC\C(C)=C/C=C/C(C)=C/C=C/C(C)=C/C=C/C=C(C)/C=C/C=C(C)/C=C/C=C(\C)CCC=C(C)C [5-Z lycopene]	concentration (% of total isomers) all E (33 days): 10.7 % of total isomers; concentration (% of total isomers) x-Z (33 days): 30.7 % of total isomers
1.8 % of total isomers	4.4 % of total isomers	0 % of total isomers	2.1 % of total isomers	5.8 % of total isomers	2.8 % of total isomers	11.6 % of total isomers	6.0 % of total isomers	5.9 % of total isomers	1.5 % of total isomers	5.6 % of total isomers	8.6 % of total isomers	2.3 % of total isomers	66.5 % of total isomers	8.2 % of total isomers	7.0 % of total isomers	15.9 % of total isomers	4.1 % of total isomers	56.0 % of total isomers	10.5 % of total isomers	CC(C)=CCC/C(C)=C/C=C/C(C)=C\C=C\C(C)=C\C=C\C=C(C)\C=C\C=C(C)\C=C\C=C(/C)CCC=C(C)C [9-Z lycopene]	concentration (% of total isomers) 9-Z (0 days): 93.3 % of total isomers; concentration (% of total isomers) 13-Z (0 days): 0.6 % of total isomers; concentration (% of total isomers) 9-Z (1 day): 87.1 % of total isomers; concentration (% of total isomers) 13-Z (1 day): 2.3 % of total isomers; concentration (% of total isomers) 9-Z (2 days): 83.5 % of total isomers; concentration (% of total isomers) 13-Z (2 days): 3.1 % of total isomers; concentration (% of total isomers) 9-Z (5 days): 79.2 % of total isomers; concentration (% of total isomers) 13-Z (5 days): 5.2 % of total isomers; concentration (% of total isomers) all E (33 days): 9.8 % of total isomers; concentration (% of total isomers) x-Z (33 days): 19.7 % of total isomers
0 % of total isomers	2.4 % of total isomers	1.0 % of total isomers	0 % of total isomers	42.6 % of total isomers	0 % of total isomers	0 % of total isomers	59.8 % of total isomers	1.5 % of total isomers	1.9 % of total isomers	68.9 % of total isomers	4.3 % of total isomers	5.3 % of total isomers	2.6 % of total isomers	20.8 % of total isomers	65.5 % of total isomers	5.8 % of total isomers	11.7 % of total isomers	4.2 % of total isomers	16.9 % of total isomers	CC(C)=CCC/C(C)=C/C=C/C(C)=C/C=C/C(C)=C\C=C\C=C(C)\C=C\C=C(C)\C=C\C=C(/C)CCC=C(C)C [13-Z lycopene]	fraction of the isomer transformed / converted into other isomers (after 33 day storage in n-hexane at room temperature in the absence of light): more than 80%; concentration (% of total isomers) 9-Z (0 days): 0 % of total isomers; concentration (% of total isomers) 13-Z (0 days): 96.6 % of total isomers; concentration (% of total isomers) 9-Z (1 day): 0.4 % of total isomers; concentration (% of total isomers) 13-Z (1 day): 57.0 % of total isomers; concentration (% of total isomers) 9-Z (2 days): 0 % of total isomers; concentration (% of total isomers) 13-Z (2 days): 38.7 % of total isomers; concentration (% of total isomers) 9-Z (5 days): 1.5 % of total isomers; concentration (% of total isomers) 13-Z (5 days): 23.4 % of total isomers; concentration (% of total isomers) all E (33 days): 57.0 % of total isomers; concentration (% of total isomers) x-Z (33 days): 10.2 % of total isomers
0.5 % of total isomers	97.6 % of total isomers	0.1 % of total isomers	1.2 % of total isomers	86.0 % of total isomers	1.5 % of total isomers	2.6 % of total isomers	78.4 % of total isomers	3.0 % of total isomers	3.8 % of total isomers	69.3 % of total isomers	5.1 % of total isomers	6.4 % of total isomers	2.0 % of total isomers	18.2 % of total isomers	67.8 % of total isomers	5.6 % of total isomers	13.4 % of total isomers	3.8 % of total isomers	15.7 % of total isomers	CC(C)=CCC/C(C)=C/C=C/C(C)=C/C=C/C(C)=C/C=C/C=C(C)/C=C/C=C(C)/C=C/C=C(\C)CCC=C(C)C [all-E lycopene]	concentration (% of total isomers) 9-Z (0 days): 0.5 % of total isomers; concentration (% of total isomers) 13-Z (0 days): 1.4 % of total isomers; concentration (% of total isomers) 9-Z (1 day): 1.2 % of total isomers; concentration (% of total isomers) 13-Z (1 day): 10.1 % of total isomers; concentration (% of total isomers) 9-Z (2 days): 1.1 % of total isomers; concentration (% of total isomers) 13-Z (2 days): 15.0 % of total isomers; concentration (% of total isomers) 9-Z (5 days): 2.2 % of total isomers; concentration (% of total isomers) 13-Z (5 days): 19.6 % of total isomers; concentration (% of total isomers) all E (33 days): 58.7 % of total isomers; concentration (% of total isomers) x-Z (33 days): 8.4 % of total isomers
